# Experimental data from patent US8394820B2, “N-azabicyclic carboxamide derivatives, preparation thereof and therapeutic use thereof” (Sanofi, priority 2008, dated 2013).
# Target: T1, TRPV1 receptor (Rattus norvegicus, UniProt O35433)
# T1 construct: DRG neurones naturally express the TRPV1 receptor; endogenous in cells; host or cells: primary culture of newborn (1-day-old) rat dorsal root ganglion neurones
# Assay: Test of inhibition of the current induced with capsaicin on rat DRGs (whole-cell patch-clamp)
# Assay type: cell-based
# Settings: compound at 1 nM; inhibition of control capsaicin response; primary culture of newborn rat DRG neurones
# Protocol: Test of Inhibition of the Current Induced with Capsaicin on Rat DRGs • Primary culture of rat dorsal root ganglion (DRG) cells:
# DRG neurones naturally express the TRPV1 receptor.
# The primary cultures of newborn rat DRGs are prepared using 1-day-old rats. Briefly, after dissection, the ganglions are trypsinized and the cells dissociated by mechanical trituration. The cells are resuspended in an Eagle basal culture medium containing 10% foetal calf serum, 25 mM KCl, 2 mM glutamine, 100 μg/ml gentamicin and 50 ng/ml of NGF, and then deposited on glass slides coated with laminin (0.25×10^6 cells per slide), which are then placed in Corning 12-well dishes. The cells are incubated at 37° C. in a humidified atmosphere containing 5% CO2 and 95% air. […]
# The measuring chambers (volume 800 μl) containing the cell preparation are placed on the platform of an inverted microscope (Olympus IMT2) equipped with Hoffman optics (Modulation Contrast, New York) and observed at a magnification of 400×. […] The overall currents (membrane potential set at −60 mV) are recorded with an Axopatch 1D amplifier (Axon Instruments, Foster City, Calif.), connected to a PC running the Pclamp8 software (Axon Instrument). The current plots are recorded on paper and simultaneously digitized (sampling frequency 15 to 25 Hz) and acquired on the hard drive of the PC. […]
# T1 sequence (O35433 whole entry): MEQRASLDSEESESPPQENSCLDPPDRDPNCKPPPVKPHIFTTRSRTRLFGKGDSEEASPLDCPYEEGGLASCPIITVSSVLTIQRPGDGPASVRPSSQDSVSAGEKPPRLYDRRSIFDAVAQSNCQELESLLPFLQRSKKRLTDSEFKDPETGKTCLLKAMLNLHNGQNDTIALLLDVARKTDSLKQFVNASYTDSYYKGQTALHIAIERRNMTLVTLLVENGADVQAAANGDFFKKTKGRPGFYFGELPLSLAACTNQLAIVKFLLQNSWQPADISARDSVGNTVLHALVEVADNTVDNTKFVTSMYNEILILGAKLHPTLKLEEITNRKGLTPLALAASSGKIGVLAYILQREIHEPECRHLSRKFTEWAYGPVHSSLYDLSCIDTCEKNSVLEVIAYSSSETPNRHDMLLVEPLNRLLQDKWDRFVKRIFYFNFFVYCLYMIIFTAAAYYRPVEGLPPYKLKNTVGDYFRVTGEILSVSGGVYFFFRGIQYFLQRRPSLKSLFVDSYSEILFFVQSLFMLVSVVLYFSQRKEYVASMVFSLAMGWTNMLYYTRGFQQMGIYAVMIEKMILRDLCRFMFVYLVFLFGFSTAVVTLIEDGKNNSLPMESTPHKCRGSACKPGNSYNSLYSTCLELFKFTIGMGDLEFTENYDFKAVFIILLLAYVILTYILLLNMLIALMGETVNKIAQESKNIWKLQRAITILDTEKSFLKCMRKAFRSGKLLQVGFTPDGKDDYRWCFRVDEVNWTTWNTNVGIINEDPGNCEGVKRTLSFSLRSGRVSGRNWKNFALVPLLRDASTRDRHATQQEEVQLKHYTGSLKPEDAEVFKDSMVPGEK
row,SMILES,inhibition at 0.001 µM
1,"Cc1nc2cc(NC(=O)c3cc4cc(F)ccc4n3Cc3cccc(F)c3)ccn2c1C [Compound 1, N-(2,3-Dimethylimidazo[1,2-a]pyrid-7-yl)-5-fluoro-1-[(3-fluorophenyl)methyl]-1H-indole-2-carboxamide]",81.5%

# Same assay, conditions: compound at 100 nM; inhibition of control capsaicin response; primary culture of newborn rat DRG neurones
row,SMILES,inhibition at 0.1 µM
1,"Cc1cc2ncc(NC(=O)c3cc4cc(F)ccc4n3Cc3cccc(F)c3)cn2n1 [Compound 20, N-(2-Methylpyrazolo[1,5-a]pyrimidin-6-yl)-5-fluoro-1-[(3-fluorophenyl)methyl]-1H-indole-2-carboxamide]",80%

# Tested on: not given
# Assay: not given
# Settings: not given
row,melting point,SMILES
1,264 to 265 °C,CCc1cn2ccc(NC(=O)c3cc4cc(C(F)(F)F)cnc4n3Cc3cccc(F)c3)cc2n1
2,200 to 203 °C,Cc1cn2cc(NC(=O)c3cc4cc(F)ccc4n3Cc3cccc(F)c3)ccc2n1
3,247 to 249 °C,O=C(Nc1ccc2nc(CO)cn2c1)c1cc2cc(F)ccc2n1Cc1cccc(F)c1
4,190 to 192 °C,CC(C)(C)c1cn2cc(NC(=O)c3cc4cc(F)ccc4n3Cc3cccc(F)c3)ccc2n1
5,267 to 268 °C,CCOC(=O)c1cn2nc(NC(=O)c3cc4cc(F)ccc4n3Cc3cccc(F)c3)ccc2n1
6,254 to 255 °C,O=C(Nc1ccn2cc(CO)nc2c1)c1cc2cc(C(F)(F)F)ccc2n1Cc1cccc(F)c1

# More lines, now with the values behind:
row,SMILES,melting point
1,Cc1cn2ccc(NC(=O)c3cc4cc(F)ccc4n3Cc3cccc(F)c3)cc2n1,267 to 268 °C
2,CCOC(=O)c1cn2cc(NC(=O)c3cc4cc(F)ccc4n3Cc3cccc(F)c3)ccc2n1,242 to 245 °C
3,O=C(Nc1ccn2cc(CO)nc2c1)c1cc2cc(F)ccc2n1Cc1cccc(F)c1,244 to 245 °C
4,CC(C)(C)c1cn2ccc(NC(=O)c3cc4cc(F)ccc4n3Cc3cccc(F)c3)cc2n1,327 to 328 °C
5,CCc1cn2cc(NC(=O)c3cc4cc(F)ccc4n3Cc3cccc(F)c3)ccc2n1,278 to 279 °C
6,Cc1nc2cc(NC(=O)c3cc4cc(C(F)(F)F)ccc4n3Cc3cccc(F)c3)ccn2c1C,280 to 281 °C
7,COCc1cn2ccc(NC(=O)c3cc4cc(F)ccc4n3Cc3cccc(F)c3)cc2n1,215 to 216 °C
8,Cc1nc2cc(NC(=O)c3cc4cc(C(F)(F)F)cnc4n3Cc3cccc(F)c3)ccn2c1C,287 to 288 °C
9,O=C(Nc1ccn2cc(CO)nc2c1)c1cc2cc(C(F)(F)F)cnc2n1Cc1cccc(F)c1,238 to 240 °C
10,Cc1nc2cc(NC(=O)c3cc4cc(F)ccc4n3Cc3cccc(F)c3)ccn2c1-c1ccccc1,305 to 307 °C
11,O=C(Nc1ccn2cc(-c3cccs3)nc2c1)c1cc2cc(F)ccc2n1Cc1cccc(F)c1,259 to 260 °C
12,"Cc1cc2ncc(NC(=O)c3cc4cc(F)ccc4n3Cc3cccc(F)c3)cn2n1 [Compound 20, N-(2-Methylpyrazolo[1,5-a]pyrimidin-6-yl)-5-fluoro-1-[(3-fluorophenyl)methyl]-1H-indole-2-carboxamide]",267 to 268 °C
13,O=C(Nc1ccc2nc(-c3cccs3)cn2c1)c1cc2cc(F)ccc2n1Cc1cccc(F)c1,316 to 318 °C
